These results are taken from patent US20250353891A1 (MEDIMMUNE LIMITED, priority 2022, published 2025).

pEC50: −log10 of the molar value. Starred links: 1 amine or outer side, 2 acyl side, 3 side chain; linkers in the order of their positions; H or OH if unused. Non-standard residues stand in square brackets, D forms with d. Residues, ends and D or L forms follow the SMILES beside them. Groups on a side chain read outwards from the residue. *: point of attachment. Trp(5-Br) = N[C@@H](Cc1c[nH]c2ccc(Br)cc12)C(=O)O; Trp(1-Me) = Cn1cc(C[C@H](N)C(=O)O)c2ccccc21; Bip = N[C@@H](Cc1ccc(-c2ccccc2)cc1)C(=O)O; C18 diacid = O=C(O)CCCCCCCCCCCCCCCCC(=O)*; γGlu = O=C(O)[C@H](CCC(=O)[*:2])N[*:1]; αMeF = C[C@](N)(Cc1ccccc1)C(=O)O; AEEA = NCCOCCOCC(=O)O; Aib = CC(C)(N)C(=O)O

In experiment [1] the target is human GLP-1 receptor (hGLP-1R) (Homo sapiens, UniProt P43220). As to the kind of experiment: cAMP production (HTRF) in CHO cells expressing hGLP-1R. The following applies: for pEC50: Table 6, peptides modified at position 17, cAMP in CHO hGLP-1R cells, geometric mean, read-out: hGLP-1R EC50; for % Relative Potency Ratio: Table 6, % GLP-1R activity relative to GLP-1 / % GlucR activity relative to glucagon. The format is cell-based. Also noted: expressed in transfected cells. In short, it runs like this: (§1)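 Potency values represent EC50 from 4-parameter logistic curves of HTRF % Delta F signal. Receptor-expressing CHO cells (hGCGR 2×10^5 cells/mL, hGLP-1R 1×10^5 cells/mL) were exposed for 30 min at room temperature before two-step cAMP detection.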
(In general: cAMP levels reflect the balance of adenylyl cyclase and phosphodiesterase activity.)

Experiment [2] addresses human glucagon receptor (hGCGR) (Homo sapiens, UniProt P47871). Nature of the experiment: cAMP production (HTRF) in CHO cells expressing hGCGR. The class given is cell-based. Also noted: expressed in transfected cells. The following applies: Table 6, peptides modified at position 17; cAMP in CHO hGCGR cells; geometric mean; read-out: hGluc-R EC50. In short, it runs like this:
as §1

human GLP-1 receptor (hGLP-1R), sequence (P43220 24-463): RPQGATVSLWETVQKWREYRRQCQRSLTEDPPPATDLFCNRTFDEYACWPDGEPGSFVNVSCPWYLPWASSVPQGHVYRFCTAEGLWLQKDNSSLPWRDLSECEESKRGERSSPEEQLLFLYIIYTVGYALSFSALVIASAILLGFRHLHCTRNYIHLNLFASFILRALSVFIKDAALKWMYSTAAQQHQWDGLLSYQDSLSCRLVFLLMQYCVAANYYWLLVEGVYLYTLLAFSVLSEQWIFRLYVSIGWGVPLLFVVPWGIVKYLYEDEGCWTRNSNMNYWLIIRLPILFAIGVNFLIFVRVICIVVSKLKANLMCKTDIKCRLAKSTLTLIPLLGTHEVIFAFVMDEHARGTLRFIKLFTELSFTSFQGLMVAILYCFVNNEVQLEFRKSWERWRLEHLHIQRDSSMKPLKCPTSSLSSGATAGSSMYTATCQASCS
human glucagon receptor (hGCGR), sequence (P47871 26-477): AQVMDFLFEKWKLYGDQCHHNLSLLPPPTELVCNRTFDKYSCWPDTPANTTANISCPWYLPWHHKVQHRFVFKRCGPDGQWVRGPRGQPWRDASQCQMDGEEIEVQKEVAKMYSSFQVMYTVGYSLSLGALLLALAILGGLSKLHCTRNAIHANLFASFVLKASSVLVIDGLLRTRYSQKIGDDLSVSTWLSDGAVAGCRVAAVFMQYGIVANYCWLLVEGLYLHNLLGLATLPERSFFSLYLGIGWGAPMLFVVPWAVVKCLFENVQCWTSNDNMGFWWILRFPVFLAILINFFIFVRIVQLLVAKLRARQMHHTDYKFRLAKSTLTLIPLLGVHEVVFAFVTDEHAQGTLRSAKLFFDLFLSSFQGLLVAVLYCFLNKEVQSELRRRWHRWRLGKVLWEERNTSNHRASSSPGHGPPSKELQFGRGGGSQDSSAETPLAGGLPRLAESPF

As for `CC(C)C[C@H](NC(=O)[C@H](Cc1c[nH]c2ccccc12)NC(=O)[C@H](CCC(N)=O)NC(=O)[C@@H](NC(=O)[C@H](Cc1ccccc1)NC(=O)[C@H](CC(=O)O)NC(=O)[C@H](CCCNC(=N)N)NC(=O)[C@H](C)NC(=O)[C@H](CCCNC(=N)N)NC(=O)[C@H](CCCCNC(=O)COCCOCCNC(=O)COCCOCCNC(=O)CC[C@H](NC(=O)CC[C@H](NC(=O)CCCCCCCCCCCCCCCCC(=O)O)C(=O)O)C(=O)O)NC(=O)[C@@H](NC(=O)[C@H](CC(=O)O)NC(=O)[C@H](CC(C)C)NC(=O)[C@](C)(Cc1ccccc1)NC(=O)[C@H](CCCCN)NC(=O)[C@H](CO)NC(=O)[C@@H](NC(=O)[C@H](CC(=O)O)NC(=O)[C@H](CO)NC(=O)[C@@H](NC(=O)[C@H](Cc1ccccc1)NC(=O)[C@@H](NC(=O)CNC(=O)[C@H](CCC(N)=O)NC(=O)C(C)(C)NC(=O)[C@@H](N)Cc1c[nH]cn1)[C@@H](C)O)[C@@H](C)O)C(C)C)[C@@H](C)O)C(C)C)C(=O)N[C@@H](CC(C)C)C(=O)N[C@@H](CCC(=O)O)C(=O)NC(C)(C)C(=O)NCC(N)=O` [Peptide 428], in experiment [1], the pEC50 – broadly, the negative decadic logarithm of the EC50, by convention in mol/L – was 10.48 and the “% Relative Potency Ratio” value was found to be 0.6. In addition, in experiment [2], the pEC50 is 10.98.

For the molecule `CC(C)C[C@H](NC(=O)[C@H](Cc1c[nH]c2ccccc12)NC(=O)[C@H](CCCNC(=N)N)NC(=O)[C@@H](NC(=O)[C@H](Cc1ccccc1)NC(=O)[C@H](CC(=O)O)NC(=O)[C@H](CCC(N)=O)NC(=O)[C@H](C)NC(=O)[C@H](CCCNC(=N)N)NC(=O)[C@H](CCCCNC(=O)COCCOCCNC(=O)COCCOCCNC(=O)CC[C@H](NC(=O)CCCCCCCCCCCCCCCCC(=O)O)C(=O)O)NC(=O)[C@H](CO)NC(=O)[C@H](CC(=O)O)NC(=O)[C@H](CC(C)C)NC(=O)[C@](C)(Cc1ccccc1)NC(=O)[C@H](CCCCN)NC(=O)[C@H](CO)NC(=O)[C@@H](NC(=O)[C@H](CC(=O)O)NC(=O)[C@H](CO)NC(=O)[C@@H](NC(=O)[C@H](Cc1ccccc1)NC(=O)[C@@H](NC(=O)CNC(=O)[C@H](CCC(N)=O)NC(=O)C(C)(C)NC(=O)[C@@H](N)Cc1c[nH]cn1)[C@@H](C)O)[C@@H](C)O)C(C)C)C(C)C)C(=O)N[C@@H](CCC(=O)O)C(=O)N[C@@H](C)C(=O)NC(C)(C)C(=O)NCC(N)=O` [Peptide 429] (H-H[Aib]QGTFTSDVSK[αMeF]LDSK([AEEA-AEEA-γGlu-C18 diacid])RAQDFVRWLEA[Aib]G-NH2; N-terminus assumed), in experiment [1], the pEC50 was 10.82 and the “% Relative Potency Ratio” value is 19.0. Also, the negative logarithm of the EC50 (pEC50) in experiment [2] is 9.84.

On to `CC(C)C[C@H](NC(=O)[C@H](Cc1c[nH]c2ccccc12)NC(=O)[C@H](CCCNC(=N)N)NC(=O)[C@@H](NC(=O)[C@H](Cc1ccccc1)NC(=O)[C@H](CC(=O)O)NC(=O)[C@H](CCC(N)=O)NC(=O)[C@H](C)NC(=O)[C@H](CCCNC(=N)N)NC(=O)[C@H](CCCCNC(=O)COCCOCCNC(=O)COCCOCCNC(=O)CC[C@H](NC(=O)CC[C@H](NC(=O)CCCCCCCCCCCCCCCCC(=O)O)C(=O)O)C(=O)O)NC(=O)[C@H](CO)NC(=O)[C@H](CC(=O)O)NC(=O)[C@H](CC(C)C)NC(=O)[C@](C)(Cc1ccccc1)NC(=O)[C@H](CCCCN)NC(=O)[C@H](CO)NC(=O)[C@@H](NC(=O)[C@H](CC(=O)O)NC(=O)[C@H](CO)NC(=O)[C@@H](NC(=O)[C@H](Cc1ccccc1)NC(=O)[C@@H](NC(=O)CNC(=O)[C@H](CCC(N)=O)NC(=O)C(C)(C)NC(=O)[C@@H](N)Cc1c[nH]cn1)[C@@H](C)O)[C@@H](C)O)C(C)C)C(C)C)C(=O)N[C@@H](CCC(=O)O)C(=O)N[C@@H](C)C(=O)NC(C)(C)C(=O)NCC(N)=O` [Peptide 430] (H-H[Aib]QGTFTSDVSK[αMeF]LDSK([AEEA-AEEA-γGlu-γGlu-C18 diacid])RAQDFVRWLEA[Aib]G-NH2; N-terminus assumed), for which, in experiment [1], the pEC50 is 10.61 and the “% Relative Potency Ratio” value amounted to 13.0. Further, the pEC50 in experiment [2] was 9.80.

`CC(C)C[C@H](NC(=O)[C@H](Cc1c[nH]c2ccccc12)NC(=O)[C@H](C)NC(=O)[C@@H](NC(=O)[C@H](Cc1ccccc1)NC(=O)[C@H](CC(=O)O)NC(=O)[C@H](CCC(N)=O)NC(=O)[C@H](C)NC(=O)[C@H](CCCNC(=N)N)NC(=O)[C@H](CCCCNC(=O)COCCOCCNC(=O)COCCOCCNC(=O)CC[C@H](NC(=O)CC[C@H](NC(=O)CCCCCCCCCCCCCCCCC(=O)O)C(=O)O)C(=O)O)NC(=O)[C@@H](NC(=O)[C@H](CC(=O)O)NC(=O)[C@H](CC(C)C)NC(=O)[C@](C)(Cc1ccccc1)NC(=O)[C@H](CCCCN)NC(=O)[C@H](CO)NC(=O)[C@@H](NC(=O)[C@H](CC(=O)O)NC(=O)[C@H](CO)NC(=O)[C@@H](NC(=O)[C@H](Cc1ccccc1)NC(=O)[C@@H](NC(=O)CNC(=O)[C@H](CCC(N)=O)NC(=O)C(C)(C)NC(=O)[C@@H](N)Cc1c[nH]cn1)[C@@H](C)O)[C@@H](C)O)C(C)C)[C@@H](C)O)C(C)C)C(=O)N[C@@H](CCC(=O)O)C(=O)N[C@@H](C)C(=O)NC(C)(C)C(=O)NCC(N)=O` [Peptide 431] (H-H[Aib]QGTFTSDVSK[αMeF]LDTK([AEEA-AEEA-γGlu-γGlu-C18 diacid])RAQDFVAWLEA[Aib]G-NH2; N-terminus assumed): in experiment [1], the pEC50 is 10.35 and the “% Relative Potency Ratio” value turned out to be 8.6. For the same molecule, in experiment [2], the pEC50 was 9.71.

For `CC(C)C[C@H](NC(=O)[C@H](Cc1ccc(-c2ccccc2)cc1)NC(=O)[C@H](CCCNC(=N)N)NC(=O)[C@@H](NC(=O)[C@H](Cc1ccccc1)NC(=O)[C@H](CC(=O)O)NC(=O)[C@H](CCC(N)=O)NC(=O)[C@H](C)NC(=O)[C@H](CCCNC(=N)N)NC(=O)[C@H](CCCCNC(=O)COCCOCCNC(=O)COCCOCCNC(=O)CC[C@H](NC(=O)CCCCCCCCCCCCCCCCC(=O)O)C(=O)O)NC(=O)[C@H](CO)NC(=O)[C@H](CC(=O)O)NC(=O)[C@H](CC(C)C)NC(=O)[C@](C)(Cc1ccccc1)NC(=O)[C@H](CCCCN)NC(=O)[C@H](CO)NC(=O)[C@@H](NC(=O)[C@H](CC(=O)O)NC(=O)[C@H](CO)NC(=O)[C@@H](NC(=O)[C@H](Cc1ccccc1)NC(=O)[C@@H](NC(=O)CNC(=O)[C@H](CCC(N)=O)NC(=O)C(C)(C)NC(=O)[C@@H](N)Cc1c[nH]cn1)[C@@H](C)O)[C@@H](C)O)C(C)C)C(C)C)C(=O)N[C@@H](CC(C)C)C(=O)NC(C)(C)C(=O)N[C@@H](CCC(=O)O)C(=O)O` [Peptide 432] (H-H[Aib]QGTFTSDVSK[αMeF]LDSK([AEEA-AEEA-γGlu-C18 diacid])RAQDFVR[Bip]LL[Aib]E-OH), in experiment [1], the pEC50 was 8.86 and the “% Relative Potency Ratio” value is recorded as 1.7. In addition, the pEC50 in experiment [2] was 8.93.

Take `CC(C)C[C@H](NC(=O)[C@H](Cc1cn(C)c2ccccc12)NC(=O)[C@H](CCCNC(=N)N)NC(=O)[C@@H](NC(=O)[C@H](Cc1ccccc1)NC(=O)[C@H](CC(=O)O)NC(=O)[C@H](CCC(N)=O)NC(=O)[C@H](C)NC(=O)[C@H](CCCNC(=N)N)NC(=O)[C@H](CCCCNC(=O)COCCOCCNC(=O)COCCOCCNC(=O)CC[C@H](NC(=O)CCCCCCCCCCCCCCCCC(=O)O)C(=O)O)NC(=O)[C@H](CO)NC(=O)[C@H](CC(=O)O)NC(=O)[C@H](CC(C)C)NC(=O)[C@](C)(Cc1ccccc1)NC(=O)[C@H](CCCCN)NC(=O)[C@H](CO)NC(=O)[C@@H](NC(=O)[C@H](CC(=O)O)NC(=O)[C@H](CO)NC(=O)[C@@H](NC(=O)[C@H](Cc1ccccc1)NC(=O)[C@@H](NC(=O)CNC(=O)[C@H](CCC(N)=O)NC(=O)C(C)(C)NC(=O)[C@@H](N)Cc1c[nH]cn1)[C@@H](C)O)[C@@H](C)O)C(C)C)C(C)C)C(=O)N[C@@H](CC(C)C)C(=O)NC(C)(C)C(=O)N[C@@H](CCC(=O)O)C(=O)O` [Peptide 433] (H-H[Aib]QGTFTSDVSK[αMeF]LDSK([AEEA-AEEA-γGlu-C18 diacid])RAQDFVR[Trp(1-Me)]LL[Aib]E-OH; N-terminus assumed): in experiment [1], the pEC50 was 8.35 and the “% Relative Potency Ratio” value was 4.6. In experiment [2], the pEC50 was 7.98.

With `CC(C)C[C@H](NC(=O)[C@H](Cc1c[nH]c2ccc(Br)cc12)NC(=O)[C@H](CCCNC(=N)N)NC(=O)[C@@H](NC(=O)[C@H](Cc1ccccc1)NC(=O)[C@H](CC(=O)O)NC(=O)[C@H](CCC(N)=O)NC(=O)[C@H](C)NC(=O)[C@H](CCCNC(=N)N)NC(=O)[C@H](CCCCNC(=O)COCCOCCNC(=O)COCCOCCNC(=O)CC[C@H](NC(=O)CCCCCCCCCCCCCCCCC(=O)O)C(=O)O)NC(=O)[C@H](CO)NC(=O)[C@H](CC(=O)O)NC(=O)[C@H](CC(C)C)NC(=O)[C@](C)(Cc1ccccc1)NC(=O)[C@H](CCCCN)NC(=O)[C@H](CO)NC(=O)[C@@H](NC(=O)[C@H](CC(=O)O)NC(=O)[C@H](CO)NC(=O)[C@@H](NC(=O)[C@H](Cc1ccccc1)NC(=O)[C@@H](NC(=O)CNC(=O)[C@H](CCC(N)=O)NC(=O)C(C)(C)NC(=O)[C@@H](N)Cc1c[nH]cn1)[C@@H](C)O)[C@@H](C)O)C(C)C)C(C)C)C(=O)N[C@@H](CC(C)C)C(=O)NC(C)(C)C(=O)N[C@@H](CCC(=O)O)C(=O)O` [Peptide 434] (H-H[Aib]QGTFTSDVSK[αMeF]LDSK([AEEA-AEEA-γGlu-C18 diacid])RAQDFVR[Trp(5-Br)]LL[Aib]E-OH; N-terminus assumed), in experiment [1], the pEC50 is 9.82 and the “% Relative Potency Ratio” value is 3.8. The pEC50 in experiment [2] was 9.53.
